What was measured:
VEGFR2 = VEGFR2 (Homo sapiens (Human), UniProt P35968); assay: Inhibitory activity of VEGFR2 kinase (HTRF KinEASE-TK kit); type: biochemical
Procedure: HTRF®KinEASE™-TK kit (Cat.62TKOPEC, Cisbio);
VEGFR2 (Cat: k2643, Sigma);
2.1 Preparation of VEGFR2 Kinase Reagent
1× kinase buffer: 1 mL 1× kinase buffer contained 200 μL 5× kinase buffer (Invitrogen), 5 μL, 1M MgCl2, 1 μL 1M DTT, 1 μL 1M MnCl2, and 793 μL ddH2O;
5×TK substrate-biotin and ATP working fluid: as the concentrations of TK substrate-biotin and ATP, please refer to Table 1. TK substrate-biotin and ATP were diluted with 1× kinase buffer to 5 folds of the reaction concentrations;
5× kinase working fluid: as the concentration of VEGFR2 kinase, please refer to Table 1. 5× kinase working fluid was prepared with 1× Kinase buffer;
4× Sa-XL665 working fluid: as the concentration of Sa-XL665 (Cisbio) in the reaction, please refer to Table 1. The 4× Sa-XL665 working fluid was prepared with assay buffer (Cisbio);
4×TK Ab-cryptate working fluid: TK Ab-Cryptate (Cisbio) was 100-fold diluted with assay buffer (Cisbio), as working fluid;
Experimental Procedure of HTRF KinEASE TK Kit
After all the reagents were prepared as described above, the reagents except for enzymes were equilibrated to room temperature, then adding samples were performed.
TK substrate-biotin, ATP, VEGFR2 kinase and a compound at a certain concentration were reacted in 1× kinase buffer at room temperature for 20 minutes. […] To all the reaction wells, 5 μl 4× Sa-XL665 working fluid and 5 μl 4×TK Ab-cryptate working fluid were added. After reacting at room temperature for 1 hours, fluorescence signal (excited at 320 nm, emitted at 665 nm, 615 nm) was detected by ENVISION detector (Perkinelmer). Based on the full-active well and the background signal well, the inhibition rate for each well was calculated, and the average value was used for duplicate wells. The half maximal inhibitory concentration (IC50) for each test compound was fitted by professional software Graphpad PRISM 5.0.
2.3 Data Analysis Emission light ratio (ER)=665 nm emission signal/615 nm emission signal Inhibition rate=(ERpositive−ERsample)/(ERpositive−ERnegative)*100%
HTRF KinEASE TK kit was used to determine the IC50 value of a compound for kinase VEGFR2. The final concentration of the compound started from 100 μM, and 4-fold gradient dilution was carried out to provide 10 concentrations. Duplicate wells were used for each concentration. The final concentration of DMSO was controlled to 1% in the reaction system.

[1] = tested on: A498 human renal carcinoma cell strain; assay: In vitro anti-proliferation of tumor cells (CCK-8), A498; type: cell-based; settings: A498, 72 hours
Procedure: (§1) Experimental Example 2: Determination of the Compounds According to the Present Invention for IC50 of the In Vitro Anti-Proliferation of Tumor Cells
A498 human renal carcinoma cell strain (purchased from Shanghai Institute of Cell Biology, Chinese Academy of Sciences);
(§2) Preparation of a compound: the compound was diluted with DMSO to a final concentration of 10 mM.
(§3) a) Cells in logarithmic growth phase were collected, counted, and re-suspended in complete medium. The concentration of cells was adjusted to a suitable concentration (determined depending on the result of optimization experiment of cell density), and the cells were seeded to a 96-well plate at 100 μl cell suspension per well. The cells were incubated in an incubator at 37° C., 100% relative humidity, 5% CO2 for 24 hours.
(§4) b) A test compound was diluted with the culture medium to 500 μM, and then gradient dilution was performed for 8 times. Cells were added at 25 μl/well. The final concentrations of the compound was in a range from 100 μM and 0 μM, 4-fold diluted, including 10 concentrations.
(§5) c) The cells were incubated in an incubator at 37° C., 100% relative humidity, 5% CO2 for 72 hours.
(§6) d) The culture medium was withdraw and discarded, the complete medium containing 10% CCK-8 was added, and then the cells were incubated in an incubator at 37° C. for 2-4 hours.
(§7) IC50 curve was fitted and IC50 value was calculated by professional software GraphPad Prism 5.0.
(§8) In the experiment, the compounds according to the present invention were determined for their IC50 values of in vitro anti-proliferation of tumor cell strains. The final concentrations of the compounds was in a range from 100 μM and 0 μM, 4-fold diluted, including 10 concentrations.

[2] = tested on: 786-O human renal clear cell carcinoma cell strain; assay: In vitro anti-proliferation of tumor cells (CCK-8), 786-O; type: cell-based; settings: 786-0, 72 hours
Procedure: as §1
786-O human renal clear cell carcinoma cell strain (purchased from Shanghai Institute of Cell Biology, Chinese Academy of Sciences);
as §2, §3, §4, §5, §6, §7, §8

[3] = tested on: SK-OV-3 human ovarian cancer cell strain; assay: In vitro anti-proliferation of tumor cells (CCK-8), SK-OV-3; type: cell-based; settings: SK-OV-3, 72 hours
Procedure: as §1
SK-OV-3 human ovarian cancer cell strain (purchased from Shanghai Institute of Cell Biology, Chinese Academy of Sciences);
as §2, §3, §4, §5, §6, §7, §8

[4] = tested on: NCI-H460 Human large cell lung cancer cell strain; assay: In vitro anti-proliferation of tumor cells (CCK-8), NCI-H460; type: cell-based; settings: NCI-H460, 72 hours
Procedure: as §1
NCI-H460 Human large cell lung cancer cell strain (purchased from Shanghai Institute of Cell Biology, Chinese Academy of Sciences);
as §2, §3, §4, §5, §6, §7, §8

[5] = tested on: MiaPaCa-2 human pancreatic cancer cell strain; assay: In vitro anti-proliferation of tumor cells (CCK-8), MiaPaCa-2; type: cell-based; settings: MIA PaCa-2, MiaPaCa-2, 72 hours
Procedure: as §1
MiaPaCa-2 human pancreatic cancer cell strain (purchased from American ATCC);
as §2, §3, §4, §5, §6, §7, §8

[6] = tested on: HL-60 human acute myeloid leukemia cell strain; assay: In vitro anti-proliferation of tumor cells (CCK-8), HL-60; type: cell-based; settings: HL-60, 72 hours
Procedure: as §1
HL-60 human acute myeloid leukemia cell strain (purchased from Shanghai Institute of Cell Biology, Chinese Academy of Sciences);
as §2, §3, §4, §5, §6, §7, §8

[7] = tested on: HepG2 human liver cancer cell strain; assay: In vitro anti-proliferation of tumor cells (CCK-8), HepG2; type: cell-based; settings: HepG2, 72 hours
Procedure: as §1
HepG2 human liver cancer cell strain (purchased from Shanghai Institute of Cell Biology, Chinese Academy of Sciences);
as §2, §3, §4, §5, §6, §7, §8

Pharmacokinetics in mice = type: in vivo; settings: female, plasma, CD-1 mouse
Procedure: Administration route: intravenous injection (IV); per os (PO).
Fasting condition: free access to water, no fasting.
The mice were weighed before administration, and the administration volume was calculated based on their body weights (IV group: 4 mL/kg; PO group: 10 mL/kg).
Administration route and dose: Intravenous (IV) group: 1 mg/kg; Oral (PO) group: 5 mg/kg.
Animal grouping: 3 mice/group, an IV group and a PO group for each test compound.
After administration, 30 μL whole blood was collected from rim of the eyes of mice in the IV group at each pre-determined time point (5 min, 15 min, 30 min, 1 h, 2 h, 4 h, 8 h, 24 h), and 30 μL whole blood was collected from rim of the eyes of mice in the PO group at each pre-determined time point (15 min, 30 min, 1 h, 2 h, 4 h, 8 h, 24 h). The whole blood was centrifuged (6,000 rpm, 5 min) to get blood plasma. All the blood plasma samples were stored in a refrigerator of −80° C. for further analysis.
Conditions of LC/MS/MS was as follows:
Pharmacokinetic parameters were estimated according to non-compartment model (calculated by WinNonlin software): […]
IV paramater: t1/2 (hr); C0 (ng/mL); AUClast (hr*ng/mL); AUCInf (hr*ng/mL); AUC Extr (%); Vz (L/kg); Vss (L/kg); CL (mL/min/kg); MRT (hr).
PO parameter: t1/2 (hr); tmax (hr); Cmax (ng/mL); AUClast (hr*ng/mL); AUCInf (hr*ng/mL); AUC Extr (%); MRT (hr); AUC/D (hr*mg/mL); F (%).

[8] = tested on: HCT116 human colon cancer cell strain; assay: In vitro anti-proliferation of tumor cells (CCK-8), HCT-116; type: cell-based; settings: HCT-116, 72 hours
Procedure: as §1
HCT116 human colon cancer cell strain (purchased from Shanghai Institute of Cell Biology, Chinese Academy of Sciences);
as §2, §3, §4, §5, §6, §7, §8

[9] = tested on: MDA-MB-231 human mammary cancer cell strain; assay: In vitro anti-proliferation of tumor cells (CCK-8), MDA-MB-231; type: cell-based
Procedure: as §1
MDA-MB-231 human mammary cancer cell strain (purchased from Shanghai Institute of Cell Biology, Chinese Academy of Sciences);
as §2, §3, §4, §5, §6, §7, §8

Chain of VEGFR2 (P35968 20-1356): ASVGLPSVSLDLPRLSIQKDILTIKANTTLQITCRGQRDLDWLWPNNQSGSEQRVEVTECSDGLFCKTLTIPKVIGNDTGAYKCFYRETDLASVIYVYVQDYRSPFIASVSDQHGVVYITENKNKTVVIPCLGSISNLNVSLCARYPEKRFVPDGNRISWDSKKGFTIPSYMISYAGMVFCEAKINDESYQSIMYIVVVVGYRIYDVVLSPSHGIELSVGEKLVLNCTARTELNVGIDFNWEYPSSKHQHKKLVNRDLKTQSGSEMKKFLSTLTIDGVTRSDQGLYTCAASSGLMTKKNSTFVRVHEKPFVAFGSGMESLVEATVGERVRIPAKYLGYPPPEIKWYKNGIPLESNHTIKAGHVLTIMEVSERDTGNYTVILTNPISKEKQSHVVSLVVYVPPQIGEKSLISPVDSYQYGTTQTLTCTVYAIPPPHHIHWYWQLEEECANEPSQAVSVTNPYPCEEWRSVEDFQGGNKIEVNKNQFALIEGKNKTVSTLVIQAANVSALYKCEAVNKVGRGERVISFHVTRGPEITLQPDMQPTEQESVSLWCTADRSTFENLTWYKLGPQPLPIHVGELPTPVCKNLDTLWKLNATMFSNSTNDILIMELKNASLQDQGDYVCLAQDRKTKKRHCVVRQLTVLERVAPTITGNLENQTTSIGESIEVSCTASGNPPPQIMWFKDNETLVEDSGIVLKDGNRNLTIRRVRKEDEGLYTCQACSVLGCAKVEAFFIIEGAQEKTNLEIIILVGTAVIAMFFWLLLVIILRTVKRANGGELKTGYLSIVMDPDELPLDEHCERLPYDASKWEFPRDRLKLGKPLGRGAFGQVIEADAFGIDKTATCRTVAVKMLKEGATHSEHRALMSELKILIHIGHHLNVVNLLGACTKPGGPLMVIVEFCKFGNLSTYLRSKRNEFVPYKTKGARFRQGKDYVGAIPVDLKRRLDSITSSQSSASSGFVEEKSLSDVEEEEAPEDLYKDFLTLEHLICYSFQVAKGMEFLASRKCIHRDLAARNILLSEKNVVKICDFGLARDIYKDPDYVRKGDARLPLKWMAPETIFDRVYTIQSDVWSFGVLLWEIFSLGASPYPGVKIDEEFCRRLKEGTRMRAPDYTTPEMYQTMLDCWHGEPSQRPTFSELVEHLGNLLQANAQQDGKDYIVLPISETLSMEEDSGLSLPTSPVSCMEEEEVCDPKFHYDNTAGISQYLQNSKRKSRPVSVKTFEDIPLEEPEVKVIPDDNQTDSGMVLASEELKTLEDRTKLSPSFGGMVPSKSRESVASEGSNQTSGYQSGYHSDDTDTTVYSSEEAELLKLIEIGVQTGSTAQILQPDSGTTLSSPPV

- IC50 (VEGFR2; ATP 5 μM, 20 minutes, room temperature): 28.6 nM
- inhibitory activity as fold of that of Comparative compound 2 (VEGFR2; VEGFR2 kinase): 6.6 fold
- inhibitory activity as fold of that of Sorafenib (VEGFR2; VEGFR2 kinase): 3.13 fold
- IC50 value as fold of that of Comparative compound 2 (VEGFR2; VEGFR2 kinase, ratio of IC50): 0.15 fold
- IC50 value as fold of that of Sorafenib (free base) (VEGFR2; VEGFR2 kinase, ratio of IC50): 0.32 fold
- IC50 [1]: 4940 nM
- IC50 [2]: 2430 nM
- IC50 [3]: 7140 nM
- IC50 [4]: 939 nM
- IC50 [5]: 2040 nM
- IC50 [6]: 17100 nM
- IC50 [7]: 721 nM
- bioavailability (Pharmacokinetics in mice; PO 5 mg/kg vs IV 1 mg/kg, read-out: F (oral bioavailability)): 90.3%
- AUC(0-t) (Pharmacokinetics in mice; PO 5 mg/kg, average of three mice, read-out: AUClast (area under the curve)): 39600 ng·h/mL
- Cmax (Pharmacokinetics in mice; PO 5 mg/kg, average of three mice, read-out: Cmax (peak concentration)): 1910 ng/mL
- IC50 [8]: 2770 nM
- IC50 ([9]; Homo sapiens, MDA-MB-231, 72 hours, CCK-8): 2820 nM
- IC50 as fold of that of Sorafenib ([9]; MDA-MB-231 cell line): 0.28 fold
SMILES: Cn1cc(-c2nccc(Oc3ccc(NC(=O)Nc4ccc(Cl)c(C(F)(F)F)c4)cc3)c2F)cn1 [Example 1, 1-(4-chloro-3-(trifluoromethyl)phenyl)-3-(4-(3-fluoro-2-(1-methyl-4-pyrazolyl)-pyridin-4-yl-oxy)phenyl)urea]

Reference: patent US9902709B2, “Polysubstituted pyridine compound, preparation method, use and pharmaceutical composition” (PEKING UNIVERSITY FOUNDER GROUP CO., LTD., priority 2014, dated 2018)
